Test results as given in US12304920B2, “Platinum complex, its preparation and therapeutic use” (CITY UNIVERSITY OF HONG KONG, priority 2020, dated 2025).

Assays:
[1] = tested on: Human ovarian A2780 cells; assay: MTT cytotoxicity test, A2780; format: cell-based; conditions: 72 h, medium with 1% DMF (no DMF for 3a and 3b)
Description: (§1) Human ovarian A2780 and cisplatin-resistant A2780cisR cells were maintained in Roswell Park […] (RPMI) 1640 medium supported with 10% FBS, 2 mM L-glutamine, and 100 unit/mL penicillin/streptomycin. Human lung carcinoma A549 cells, cisplatin-resistant A549cisR cells, and human breast MCF-7 cells were cultured in Dulbecco's Modified Eagle Medium (DMEM) with 10% FBS and 100 units penicillin/streptomycin.
(§2) The viability of cancer cells exposed to the compounds was evaluated by means of MTT assay. Cells were seeded in 96-well plates at a density of 3,000 cells per well and incubated until the cell confluency reached 50%. Then, the medium was removed and replaced with fresh medium containing different concentrations of complexes with 1% DMF. For complex 3a and 3b with A2780, A2780CisR, A549 and A549CisR cells, the medium used for replacement contains no DMF. After 72 h, the medium was changed to serum-free medium containing 1 mg/mL MTT. After 2 h additional incubation, the medium was removed, and DMSO (200 μL) was delivered to each well to dissolve the formed purple formazan. The absorbance at 570 nm and 730 nm of each well was measured using a microplate reader (BioTek PowerWave XS).

[2] = tested on: cisplatin-resistant A2780cisR cells; assay: MTT cytotoxicity test, A2780cisR; format: cell-based, Human; conditions: 72 h, medium with 1% DMF (no DMF for 3a and 3b)
Description: as §1, §2

[3] = tested on: Human lung carcinoma A549 cells; assay: MTT cytotoxicity test, A549; format: cell-based; conditions: 72 h, medium with 1% DMF (no DMF for 3a and 3b)
Description: as §1, §2

[4] = tested on: cisplatin-resistant A549cisR cells; assay: MTT cytotoxicity test, A549cisR; format: cell-based, Human; conditions: 72 h, medium with 1% DMF (no DMF for 3a and 3b)
Description: as §1, §2

human breast MCF-7 cells = assay: MTT cytotoxicity test, MCF-7; format: cell-based; conditions: 72 h, medium with 1% DMF
Description: as §1, §2

N.N.[Cl][Pt][Cl] [cisplatin, reference compound]
IC50 [1]: 2.1 ± 0.6 µM
IC50 [2]: 23 ± 6 µM
IC50 [3]: 2 ± 0.1 µM
IC50 [4]: 12 ± 1 µM
IC50 (human breast MCF-7 cells): 18 ± 3 µM

[Pt(C26H24P2)2]Cl2 [Complex 3a]
IC50 [1]: 12 ± 3 µM
IC50 [2]: 5 ± 1 µM
IC50 [3]: 3.6 ± 0.2 µM
IC50 [4]: 1.3 ± 0.1 µM
IC50 (human breast MCF-7 cells): 7 ± 1 µM

[Pt(C54H52P2)]Cl2 [Complex 3b]
IC50 [1]: 0.23 ± 0.09 µM
IC50 [2]: 2.6 ± 0.6 µM
IC50 [3]: 0.48 ± 0.02 µM
IC50 [4]: 0.07 ± 0.01 µM
IC50 (human breast MCF-7 cells): 0.2 ± 0.01 µM

t-[Pt(acetato)2(C9H17P)2] [Complex 2a]
IC50 [1]: 8 ± 1 µM
IC50 [2]: 7 ± 2 µM
IC50 [3]: 28 ± 3 µM
IC50 (human breast MCF-7 cells): 7 ± 1 µM

t-[Pt(acetato)2(C17H14NP)2] [Complex 2e]
IC50 [1]: > 9.4 µM
IC50 [2]: > 9.4 µM
IC50 [3]: > 11.1 µM
IC50 (human breast MCF-7 cells): > 9.4 µM

t-[Pt(acetato)2(C18H12Cl3P)2] [Complex 2c]
IC50 [1]: 4 ± 1 µM
IC50 [2]: 4 ± 1 µM
IC50 [3]: 24 ± 7 µM
IC50 (human breast MCF-7 cells): 18 ± 2 µM

t-[Pt(acetato)2(C18H21P)2] [Complex 2d]
IC50 [1]: > 2.4 µM
IC50 [2]: > 2.4 µM
IC50 [3]: > 2.7 µM
IC50 (human breast MCF-7 cells): > 2.4 µM

t-[Pt(acetato)2(C21H21P)2] [Complex 2b]
IC50 [1]: 4 ± 1 µM
IC50 [2]: 4 ± 1 µM
IC50 [3]: 6.1 ± 0.3 µM
IC50 (human breast MCF-7 cells): 4 ± 0.3 µM

t-[Pt(acetato)2(PPh3)2] [Complex 1a]
IC50 [1]: 4.3 ± 0.6 µM
IC50 [2]: 3.3 ± 0.8 µM
IC50 [3]: 3.3 ± 0.6 µM
IC50 [4]: 5 ± 1 µM
IC50 (human breast MCF-7 cells): 10 ± 1 µM

t-[Pt(acetato)(benzoato)(PPh3)2] [Complex 1d]
IC50 [1]: 4.9 ± 0.6 µM
IC50 [2]: 3.1 ± 0.2 µM
IC50 [3]: 5 ± 3 µM
IC50 [4]: 5 ± 1 µM

t-[Pt(phthalato)2(PPh3)2] [Complex 1c]
IC50 [1]: 18 ± 3 µM
IC50 [2]: 10 ± 2 µM
IC50 [3]: 7 ± 1 µM
IC50 [4]: 7 ± 2 µM

t-[Pt(succinato)2(PPh3)2] [Complex 1b]
IC50 [1]: 15 ± 1 µM
IC50 [2]: 13 ± 1 µM
IC50 [3]: 5.3 ± 0.6 µM
IC50 [4]: 8 ± 5 µM

t-[Pt(succinato)(benzoato)(PPh3)2] [Complex 1e]
IC50 [1]: 8 ± 4 µM
IC50 [2]: 7.2 ± 0.2 µM
IC50 [3]: 5 ± 0.8 µM
IC50 [4]: 5 ± 2 µM
